This is an account of results in US20060167057A1, “Compounds for the treatment of CNS and amyloid associated diseases” (priority 2004, published 2006).

One assay deals with T1, L1 transport system (large neutral amino acid carrier, L1-system carrier) (Rattus norvegicus, UniProt Q63016).
T1 construct: functionality of their endogenous transporters such as the L1-system carrier; endogenous in cells; host or cells: rat primary cerebrovascular (brain microcapillary) endothelial cells, RBEC
T1 sequence (Q63016 whole entry): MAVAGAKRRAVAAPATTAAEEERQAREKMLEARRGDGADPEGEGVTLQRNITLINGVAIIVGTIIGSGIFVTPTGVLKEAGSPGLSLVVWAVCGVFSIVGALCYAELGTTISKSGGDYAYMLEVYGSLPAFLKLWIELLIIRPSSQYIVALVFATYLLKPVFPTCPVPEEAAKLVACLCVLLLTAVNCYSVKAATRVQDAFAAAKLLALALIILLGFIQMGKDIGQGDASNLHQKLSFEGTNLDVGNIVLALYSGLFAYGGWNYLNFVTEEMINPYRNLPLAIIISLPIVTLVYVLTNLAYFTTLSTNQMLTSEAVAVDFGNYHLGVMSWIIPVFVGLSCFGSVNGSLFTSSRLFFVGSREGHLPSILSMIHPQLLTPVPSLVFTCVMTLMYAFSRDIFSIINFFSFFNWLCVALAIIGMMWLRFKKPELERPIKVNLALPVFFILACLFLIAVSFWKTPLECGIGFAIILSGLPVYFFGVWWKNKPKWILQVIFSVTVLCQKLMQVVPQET
T1 sequence (Q794F9 whole entry partner): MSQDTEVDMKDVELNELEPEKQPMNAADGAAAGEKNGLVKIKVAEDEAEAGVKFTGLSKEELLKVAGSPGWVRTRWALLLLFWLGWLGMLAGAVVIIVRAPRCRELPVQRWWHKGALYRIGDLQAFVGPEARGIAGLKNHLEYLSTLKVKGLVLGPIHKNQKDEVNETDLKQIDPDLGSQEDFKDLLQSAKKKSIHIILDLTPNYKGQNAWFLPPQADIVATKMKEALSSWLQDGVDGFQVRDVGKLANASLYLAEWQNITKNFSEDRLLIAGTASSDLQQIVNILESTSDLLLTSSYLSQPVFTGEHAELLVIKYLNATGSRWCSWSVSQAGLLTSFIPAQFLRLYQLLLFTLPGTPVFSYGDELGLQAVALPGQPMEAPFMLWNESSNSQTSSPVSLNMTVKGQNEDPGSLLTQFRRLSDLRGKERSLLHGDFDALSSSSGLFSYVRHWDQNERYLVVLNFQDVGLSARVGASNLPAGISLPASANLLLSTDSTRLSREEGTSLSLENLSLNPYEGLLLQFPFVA
The experiment in a line: Competitive binding assay to the brain L1 transport system (L-[U-14C]phenylalanine on rat primary cerebrovascular endothelial cells). The following applies: 10^−4 M. The protocol:
Compound samples in PBS (without Ca^+2, Mg^+2)-glucose 30 mM-HEPES 10 mM—DMSO 1% as prepared in Example 1 were thawed and left for at least 30 minutes at 20-23° C. before preparation of the following sub-dilutions for the competitive binding assay: • 200 μL of the stock solution were added to 800 μL PBS (without Ca^+2, Mg^+2)-Glucose-HEPES-1% DMSO (PBSD-1) [diluted 1:5 for a final 1:5 dilution] • 100 μL (1/5 dilution above) were added to 900 μL PBSD-1 [diluted 1:10 for a final 1:50 dilution] • 100 μL (1/50 dilution above) were added to 900 μL PBSD-1 [diluted 1:10 for a final 1:500 dilution]
These sub-dilutions were used immediately or stored overnight at 4° C. before the competitive binding assay. A volume of 45 μL of each of the compound dilutions (1:5, 1:50, 1:500) in PBSD-1 was added to the appropriate wells in the dilution plate.
Brains from sixty 24-day-old rats were dissected individually on a sterile lint moistened with ice cold Hanks' balanced salt solution (Gibco BRL, Grand Island, N.Y.) containing 10 mM HEPES (medium 1) supplemented with 0.1% BSA. Cerebellum, striatum, optic nerves, and brain stem (white matter) were removed. After a mid-sagittal section of the brain, the meninges and leptomeningeal debris were removed by rolling a sterile dry cotton swab on the cortices. (Ichikawa N, Naora K, Hirano H, Hashimoto M, Masumura S, and Iwamoto K (1996). Isolation and primary culture of rat cerebral microvascular endothelial cells for studying drug transport in vitro. J Pharmacol Toxicol Meth 36: 45-52.). Clean cortices were minced in pieces of ≈2 mm^3 in 15 mL of ice-cold medium 1-0.1% BSA. The preparation was divided into 4 sterile pre-weighed tubes and centrifuged at 330× g at 20-25° C. for 5 min. Tubes were weighed and pre-warmed (37° C.) and medium 1 with 0.5% BSA containing 0.3% collagenase and 10 μg/mL DNAse 1 (Roche, Laval, Quebec, Canada) were added to each tube (1 mL/g of tissue).
The brain-collagenase mixture was vigorously agitated in a water bath at 37° C. for 90 min. Fifteen min before the end of the digestion, the tissue was homogenized using a 10-mL pipette until a creamy mixture was obtained (≈20 aspirations). Cells were washed by adding medium 1 with 0.1% BSA to the homogenate (26 mL/tube) and centrifuged at 100× g at 20-25° C. for 7 min. This washing step was repeated 3 more times, once for 5 min and twice for 3 min. Each pellet was re-suspended in 25 mL of a 15% dextran solution prepared in medium 1 with 0.1% BSA and centrifuged at 3200× g at 4° C. for 25 min to isolate vessels from neural tissue and dextran layers. Vascular pellets were re-suspended in 5 mL Ca^++—Mg^++-free-medium 1 with 0.1% BSA (medium 2) at 20-25° C. and transferred in a 50-mL tube. Remaining vessels were collected by rinsing the tubes and pooling the rinsing suspension. (Rupnick M A, Carey A, and Williams S K (1988). Phenotypic diversity in cultured cerebral microvascular endothelial cells in vitro. Cell Develop Biol 24: 435-444.)
The vascular preparation was filtered and rinsed (20 mL of medium 2) through a sterile 355-μm mesh. The 355-μm filtrate was sequentially filtered twice (20 mL of medium 2) through sterile 112-μm meshes and rinsed (Stanimirovic D B, Wong J, Ball R, and Durkin J P (1995). Free radical-induced endothelial membrane dysfunction at the site of the blood-brain barrier: relationship between lipid peroxidation, Na,K-ATPase activity, and ^51Cr release. Neurochem Res 20:1417-1427.) and the latter filtrate was filtered and rinsed through a sterile 20-μm mesh. A final step of filtration and rinse was repeated through a double layer of 20-μm meshes. All 20-μm meshes, which retained the microcapillaries, were then transferred into a 50-mL tube containing 20 mL of a 0.1% collagenase/dispase (Roche) solution in medium 2 supplemented with 10 μg/mL DNAse 1 and 0.147 μg/mL tosyl-lysine-chloromethyl-ketone (Sigma Chemical Co., Oakville, Ontario, Canada) (medium 3).
`NC(Cc1ccc(-c2ccc(CSc3nc(-c4ccccc4)c(-c4ccccc4)[nH]3)cc2)cc1)C(=O)O` (stereo not drawn) [Compound 89]: the “Comparison with the Binding of Phenylalanine” value (from here on “Comparison with the Binding”) is recorded as 1 (0 < X < 10 Rank 1).

On to `COc1ccc2[nH]c(SCc3ccc(-c4ccc(CC(N)C(=O)O)cc4)cc3)nc2c1` (stereo not drawn) [Compound 91], for which the “Comparison with the Binding” value is given as 1 (0 < X < 10 Rank 1).

Consider `Cc1nc(SCc2cccc(CC(N)C(=O)O)n2)sc1CC(=O)O` (stereo not drawn) [Compound 92], for which the “Comparison with the Binding” value is reported as 0 (X < 0 Rank 0).

As to `NC(Cc1ccc(-c2ccc(CSc3ncccc3C(=O)O)cc2)cc1)C(=O)O` (stereo not drawn) [Compound 93], the “Comparison with the Binding” value is reported as 0 (X < 0 Rank 0).

As to `NC(Cc1cccc(CSc2nc3cc([N+](=O)[O-])ccc3[nH]2)n1)C(=O)O` (stereo not drawn) [Compound 94], the “Comparison with the Binding” value was 1 (0 < X < 10 Rank 1).

As for `NC(Cc1ccc(-c2ccc(CSc3ncccn3)cc2)cc1)C(=O)O` (stereo not drawn) [Compound 95], the “Comparison with the Binding” value is given as 2 (10 < X < 20 Rank 2).

Regarding `Cc1nnc(SCc2cccc(CC(N)C(=O)O)n2)s1` (stereo not drawn) [Compound 96], the “Comparison with the Binding” value is given as 0 (X < 0 Rank 0).

In the case of `Cn1cnnc1SCc1ccc(-c2ccc(CC(N)C(=O)O)cc2)cc1` (stereo not drawn) [Compound 97], the “Comparison with the Binding” value is reported as 2 (10 < X < 20 Rank 2).

Turning to `NC(Cc1cccc(CN2CCN(c3ccccn3)CC2)n1)C(=O)O` (stereo not drawn) [Compound 98], the “Comparison with the Binding” value is 0 (X < 0 Rank 0).

For `NC(Cc1ccc(-c2ccc(CN3CCN(c4ncccn4)CC3)cc2)cc1)C(=O)O` (stereo not drawn) [Compound 99], the “Comparison with the Binding” value is 0 (X < 0 Rank 0).

As for `NC(Cc1cccc(-c2cccc(N3CCN(c4cccc(Cl)c4)CC3)c2)c1)C(=O)O` (stereo not drawn) [Compound 101], the “Comparison with the Binding” value is listed as 2 (10 < X < 20 Rank 2).

In the case of `N#CC1(c2ccccc2)CCN(Cc2cccc(CC(N)C(=O)O)c2)CC1` (stereo not drawn) [Compound 102], the “Comparison with the Binding” value is recorded as 1 (0 < X < 10 Rank 1).

The same assay, now with this note: 10^−5 M.
Regarding `NC(Cc1ccc(-c2ccc(CSc3nc(-c4ccccc4)c(-c4ccccc4)[nH]3)cc2)cc1)C(=O)O` (stereo not drawn) [Compound 89], the “Comparison with the Binding” value is 1 (0 < X < 10 Rank 1).

Take `COc1ccc2[nH]c(SCc3ccc(-c4ccc(CC(N)C(=O)O)cc4)cc3)nc2c1` (stereo not drawn) [Compound 91]: the “Comparison with the Binding” value is 1 (0 < X < 10 Rank 1).

In the case of `Cc1nc(SCc2cccc(CC(N)C(=O)O)n2)sc1CC(=O)O` (stereo not drawn) [Compound 92], the “Comparison with the Binding” value was 0 (X < 0 Rank 0).

Take `NC(Cc1ccc(-c2ccc(CSc3ncccc3C(=O)O)cc2)cc1)C(=O)O` (stereo not drawn) [Compound 93]: the “Comparison with the Binding” value is given as 0 (X < 0 Rank 0).

In the case of `NC(Cc1cccc(CSc2nc3cc([N+](=O)[O-])ccc3[nH]2)n1)C(=O)O` (stereo not drawn) [Compound 94], the “Comparison with the Binding” value is on record as 1 (0 < X < 10 Rank 1).

Consider `NC(Cc1ccc(-c2ccc(CSc3ncccn3)cc2)cc1)C(=O)O` (stereo not drawn) [Compound 95], for which the “Comparison with the Binding” value is listed as 3 (X > 20 Rank 3).

Take `Cc1nnc(SCc2cccc(CC(N)C(=O)O)n2)s1` (stereo not drawn) [Compound 96]: the “Comparison with the Binding” value is 1 (0 < X < 10 Rank 1).

On to `Cn1cnnc1SCc1ccc(-c2ccc(CC(N)C(=O)O)cc2)cc1` (stereo not drawn) [Compound 97], for which the “Comparison with the Binding” value is recorded as 3 (X > 20 Rank 3).

As to `NC(Cc1cccc(CN2CCN(c3ccccn3)CC2)n1)C(=O)O` (stereo not drawn) [Compound 98], the “Comparison with the Binding” value was 1 (0 < X < 10 Rank 1).

On to `NC(Cc1ccc(-c2ccc(CN3CCN(c4ncccn4)CC3)cc2)cc1)C(=O)O` (stereo not drawn) [Compound 99], for which the “Comparison with the Binding” value was 0 (X < 0 Rank 0).

`NC(Cc1cccc(-c2cccc(N3CCN(c4cccc(Cl)c4)CC3)c2)c1)C(=O)O` (stereo not drawn) [Compound 101]: the “Comparison with the Binding” value is 3 (X > 20 Rank 3).

Take `N#CC1(c2ccccc2)CCN(Cc2cccc(CC(N)C(=O)O)c2)CC1` (stereo not drawn) [Compound 102]: the “Comparison with the Binding” value was 1 (0 < X < 10 Rank 1).

The same assay, now with this note: 10^−6 M.
In the case of `NC(Cc1ccc(-c2ccc(CSc3nc(-c4ccccc4)c(-c4ccccc4)[nH]3)cc2)cc1)C(=O)O` (stereo not drawn) [Compound 89], the “Comparison with the Binding” value is on record as 1 (0 < X < 10 Rank 1).

As to `COc1ccc2[nH]c(SCc3ccc(-c4ccc(CC(N)C(=O)O)cc4)cc3)nc2c1` (stereo not drawn) [Compound 91], the “Comparison with the Binding” value is reported as 0 (X < 0 Rank 0).

In the case of `Cc1nc(SCc2cccc(CC(N)C(=O)O)n2)sc1CC(=O)O` (stereo not drawn) [Compound 92], the “Comparison with the Binding” value is 1 (0 < X < 10 Rank 1).

For the molecule `NC(Cc1ccc(-c2ccc(CSc3ncccc3C(=O)O)cc2)cc1)C(=O)O` (stereo not drawn) [Compound 93], the “Comparison with the Binding” value is 1 (0 < X < 10 Rank 1).

Regarding `NC(Cc1cccc(CSc2nc3cc([N+](=O)[O-])ccc3[nH]2)n1)C(=O)O` (stereo not drawn) [Compound 94], the “Comparison with the Binding” value is recorded as 1 (0 < X < 10 Rank 1).

With `NC(Cc1ccc(-c2ccc(CSc3ncccn3)cc2)cc1)C(=O)O` (stereo not drawn) [Compound 95], the “Comparison with the Binding” value was 2 (10 < X < 20 Rank 2).

With `Cc1nnc(SCc2cccc(CC(N)C(=O)O)n2)s1` (stereo not drawn) [Compound 96], the “Comparison with the Binding” value is 1 (0 < X < 10 Rank 1).

Consider `Cn1cnnc1SCc1ccc(-c2ccc(CC(N)C(=O)O)cc2)cc1` (stereo not drawn) [Compound 97], for which the “Comparison with the Binding” value is reported as 2 (10 < X < 20 Rank 2).

Consider `NC(Cc1cccc(CN2CCN(c3ccccn3)CC2)n1)C(=O)O` (stereo not drawn) [Compound 98], for which the “Comparison with the Binding” value is listed as 0 (X < 0 Rank 0).

Take `NC(Cc1ccc(-c2ccc(CN3CCN(c4ncccn4)CC3)cc2)cc1)C(=O)O` (stereo not drawn) [Compound 99]: the “Comparison with the Binding” value is recorded as 1 (0 < X < 10 Rank 1).

In the case of `NC(Cc1cccc(-c2cccc(N3CCN(c4cccc(Cl)c4)CC3)c2)c1)C(=O)O` (stereo not drawn) [Compound 101], the “Comparison with the Binding” value is 3 (X > 20 Rank 3).

As for `N#CC1(c2ccccc2)CCN(Cc2cccc(CC(N)C(=O)O)c2)CC1` (stereo not drawn) [Compound 102], the “Comparison with the Binding” value is given as 0 (X < 0 Rank 0).
